Test results from ChEMBL document CHEMBL4152300, “Discovery of the selective and efficacious inhibitors of FLT3 mutations” (Eur J Med Chem, 2018).
Blank lines part the entries; values can stand above or below the compound they belong to.

How the values were obtained:
[1] = target: T1, CDK2 (cyclin-dependent kinase 2) (Homo sapiens, UniProt P24941); assay: Inhibition of CDK2 (unknown origin) assessed as residual activity at 0.123 uM by Hotspot assay relative to control; conditions: CDK2 enzyme (unknown origin), read-out: Activity
[2] = target: T2, Receptor-type tyrosine-protein kinase FLT3 (Homo sapiens, UniProt P36888); assay: Inhibition of human FLT3 assessed as residual activity at 0.123 uM by Hotspot assay relative to control
[3] = target: T3, Cyclin-dependent kinase 6 (Homo sapiens, UniProt Q00534); assay: Inhibition of CDK6 (unknown origin) assessed as residual activity at 0.123 uM by Hotspot assay relative to control
[4] = system: MV4-11; assay: Growth inhibition of human MV4-11 cells harboring FLT3-ITD after 72 hrs by Cell-Titer Glo assay; assay type: functional, cell-based; conditions: MV4-11, 72 h
[5] = target: T4, Receptor-type tyrosine-protein kinase FLT3 (Homo sapiens, UniProt P36888)
T4 sequence (P36888 whole entry): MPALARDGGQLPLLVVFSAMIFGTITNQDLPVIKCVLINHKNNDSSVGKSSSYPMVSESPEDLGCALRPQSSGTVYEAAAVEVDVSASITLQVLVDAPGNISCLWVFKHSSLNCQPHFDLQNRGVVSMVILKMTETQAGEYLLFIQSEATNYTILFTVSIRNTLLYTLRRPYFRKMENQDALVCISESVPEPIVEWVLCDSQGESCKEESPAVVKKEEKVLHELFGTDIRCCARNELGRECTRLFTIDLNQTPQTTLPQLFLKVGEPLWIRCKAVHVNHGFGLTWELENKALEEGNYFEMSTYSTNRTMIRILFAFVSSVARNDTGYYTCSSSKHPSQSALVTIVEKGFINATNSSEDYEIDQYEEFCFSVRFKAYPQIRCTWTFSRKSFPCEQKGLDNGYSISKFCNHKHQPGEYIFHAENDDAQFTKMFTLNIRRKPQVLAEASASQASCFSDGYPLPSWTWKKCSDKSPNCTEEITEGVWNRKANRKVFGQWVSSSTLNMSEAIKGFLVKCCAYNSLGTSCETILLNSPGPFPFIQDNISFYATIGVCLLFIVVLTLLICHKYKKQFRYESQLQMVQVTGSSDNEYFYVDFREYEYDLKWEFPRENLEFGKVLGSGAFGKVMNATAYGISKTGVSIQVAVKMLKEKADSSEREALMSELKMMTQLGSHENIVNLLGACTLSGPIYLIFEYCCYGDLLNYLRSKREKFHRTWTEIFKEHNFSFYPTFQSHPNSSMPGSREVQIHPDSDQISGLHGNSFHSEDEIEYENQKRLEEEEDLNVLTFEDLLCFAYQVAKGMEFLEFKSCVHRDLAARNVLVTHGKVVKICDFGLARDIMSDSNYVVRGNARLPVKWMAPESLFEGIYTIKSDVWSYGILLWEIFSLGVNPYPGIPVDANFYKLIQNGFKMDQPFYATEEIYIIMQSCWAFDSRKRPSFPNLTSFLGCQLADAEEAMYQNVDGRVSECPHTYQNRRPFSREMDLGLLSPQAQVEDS
Description: Inhibition of human FLT3 by Hotspot assay

[6] = target: T3, Cyclin-dependent kinase 6; assay: Inhibition of CDK6 (unknown origin) by Hotspot assay
[7] = target: T3, Cyclin-dependent kinase 6; assay: Inhibition of CDK6 (unknown origin) at 0.123 uM by Hotspot assay relative to control
[8] = target: Cyclin-dependent kinase 2 (Homo sapiens, UniProt P24941); assay: Inhibition of CDK2 (unknown origin) by Hotspot assay
[9] = target: T1, CDK2 (cyclin-dependent kinase 2); assay: Inhibition of CDK2 (unknown origin) at 0.123 uM by Hotspot assay relative to control; conditions: CDK2 enzyme (unknown origin)
[10] = species: Homo sapiens; assay: Selectivity ratio of IC50 for CDK6 (unknown origin) to IC50 for human FLT3
[11] = species: Homo sapiens; assay: Selectivity ratio of IC50 for CDK2 (unknown origin) to IC50 for human FLT3
[12] = target: Receptor-type tyrosine-protein kinase FLT3 (Homo sapiens, UniProt P36888, D835V/ITD); assay: Binding affinity to human FLT3 ITD/D835V double mutant expressed in bacterial expression system by Kinomescan method
[13] = Intrinsic clearance in human liver microsomes preincubated for 5 mins followed by NADPH addition by LC-MS/MS analysis; assay type: ADME, microsome; conditions: read-out: CLH
[14] = Drug uptake in human liver microsomes up to 60 mins by LC-MS/MS analysis; assay type: ADME, microsome; conditions: 1 h
[15] = target: T2, Receptor-type tyrosine-protein kinase FLT3; assay: Inhibition of human FLT3 Y591-V592 mutant by Hotspot assay
[16] = target: T2, Receptor-type tyrosine-protein kinase FLT3; assay: Inhibition of human FLT3 F594_R595insREY mutant by Hotspot assay
[17] = Half life in human liver microsomes preincubated for 5 mins followed by NADPH addition by LC-MS/MS analysis; assay type: ADME, microsome
[18] = target: T5, Receptor-type tyrosine-protein kinase FLT3 (Homo sapiens, UniProt P36888, D835Y); assay: Inhibition of human FLT3 D835Y mutant by Hotspot assay
[19] = target: CDK6/cyclin D1 (Homo sapiens, UniProt Q00534); assay: Inhibition of human CDK6/Cyclin-D1 at 0.123 uM by Hotspot assay; assay type: protein-complex assay
[20] = target: Receptor-type tyrosine-protein kinase FLT3 (Homo sapiens, UniProt P36888, F691L/ITD); assay: Binding affinity to human FLT3 ITD/F691L double mutant expressed in bacterial expression system by Kinomescan method
[21] = target: T2, Receptor-type tyrosine-protein kinase FLT3; assay: Inhibition of human FLT3 R595_E596 mutant by Hotspot assay
[22] = target: CDK2/Cyclin A2 (Homo sapiens, UniProt P24941); assay: Inhibition of human CDK2/Cyclin-A at 0.123 uM by Hotspot assay; assay type: protein-complex assay
[23] = target: T6, Receptor-type tyrosine-protein kinase FLT3 (Homo sapiens, UniProt P36888, ITD); assay: Inhibition of human FLT3 ITD-W51 mutant by Hotspot assay
[24] = target: Cyclin-dependent kinase 4/cyclin D1 (Homo sapiens, UniProt P11802); assay: Inhibition of human CDK4/Cyclin-D1 at 0.123 uM by Hotspot assay; assay type: protein-complex assay
[25] = target: T6, Receptor-type tyrosine-protein kinase FLT3; assay: Inhibition of human FLT3 ITD-NPOS mutant by Hotspot assay
[26] = system: K562; assay: Growth inhibition of FLT3 null human K562 cells after 72 hrs by Cell-Titer Glo assay; assay type: functional, cell-based; conditions: K562, 72 h
[27] = target: Mitogen-activated protein kinase 15 (Homo sapiens, UniProt Q8TD08); assay: Inhibition of human ERK7 at 0.123 uM by Hotspot assay
[28] = system: MOLM-13; assay: Growth inhibition of human MOLM13 cells harboring FLT3-ITD after 72 hrs by Cell-Titer Glo assay; assay type: functional, cell-based; conditions: MOLM-13, 72 h
[29] = system: HL-60; assay: Growth inhibition of human HL60 cells expressing low levels of FLT3 after 72 hrs by Cell-Titer Glo assay; assay type: functional, cell-based; conditions: HL-60, 72 h
[30] = target: T2, Receptor-type tyrosine-protein kinase FLT3; assay: Inhibition of human FLT3 F594_R595insR mutant by Hotspot assay
[31] = target: T5, Receptor-type tyrosine-protein kinase FLT3; assay: Binding affinity to human FLT3 D835Y mutant (Q580 to Y969 residues) expressed in bacterial expression system by Kinomescan method
[32] = target: Vascular endothelial growth factor receptor 3 (Homo sapiens, UniProt P35916); assay: Inhibition of human FLT4 by Hotspot assay
Vascular endothelial growth factor receptor 3, sequence (P35916 whole entry): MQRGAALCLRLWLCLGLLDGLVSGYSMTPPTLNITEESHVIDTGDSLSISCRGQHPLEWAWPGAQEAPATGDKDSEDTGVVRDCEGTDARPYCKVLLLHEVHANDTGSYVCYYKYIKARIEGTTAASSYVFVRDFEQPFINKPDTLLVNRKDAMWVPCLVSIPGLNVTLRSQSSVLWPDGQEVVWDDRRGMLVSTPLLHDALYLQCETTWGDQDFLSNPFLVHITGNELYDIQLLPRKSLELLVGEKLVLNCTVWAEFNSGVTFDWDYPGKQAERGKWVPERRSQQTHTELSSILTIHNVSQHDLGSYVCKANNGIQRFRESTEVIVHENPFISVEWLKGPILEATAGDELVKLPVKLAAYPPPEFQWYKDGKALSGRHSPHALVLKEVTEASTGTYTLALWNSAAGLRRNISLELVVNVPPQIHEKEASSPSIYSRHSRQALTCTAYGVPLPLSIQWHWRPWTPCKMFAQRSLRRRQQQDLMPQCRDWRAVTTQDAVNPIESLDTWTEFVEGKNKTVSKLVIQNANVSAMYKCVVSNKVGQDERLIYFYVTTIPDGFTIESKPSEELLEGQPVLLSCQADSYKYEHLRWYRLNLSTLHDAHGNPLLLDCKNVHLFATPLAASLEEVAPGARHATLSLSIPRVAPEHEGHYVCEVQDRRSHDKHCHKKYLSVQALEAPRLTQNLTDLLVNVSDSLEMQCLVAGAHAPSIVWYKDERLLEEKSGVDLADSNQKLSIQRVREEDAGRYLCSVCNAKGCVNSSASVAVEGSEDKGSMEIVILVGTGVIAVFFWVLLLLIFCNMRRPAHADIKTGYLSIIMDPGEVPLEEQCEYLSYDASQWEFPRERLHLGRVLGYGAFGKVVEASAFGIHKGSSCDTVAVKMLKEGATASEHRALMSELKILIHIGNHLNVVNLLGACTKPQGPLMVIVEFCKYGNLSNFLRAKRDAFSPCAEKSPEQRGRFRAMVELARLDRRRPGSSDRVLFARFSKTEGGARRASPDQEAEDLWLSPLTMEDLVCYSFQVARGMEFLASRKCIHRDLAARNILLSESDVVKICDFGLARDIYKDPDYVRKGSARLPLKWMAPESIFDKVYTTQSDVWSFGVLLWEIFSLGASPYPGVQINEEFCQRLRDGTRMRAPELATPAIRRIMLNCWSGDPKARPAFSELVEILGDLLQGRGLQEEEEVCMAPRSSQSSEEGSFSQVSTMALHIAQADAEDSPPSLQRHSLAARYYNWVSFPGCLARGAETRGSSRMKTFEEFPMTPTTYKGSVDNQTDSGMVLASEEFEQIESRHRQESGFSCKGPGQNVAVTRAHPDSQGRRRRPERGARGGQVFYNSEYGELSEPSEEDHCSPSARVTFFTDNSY

T3 sequence (Q00534 whole entry): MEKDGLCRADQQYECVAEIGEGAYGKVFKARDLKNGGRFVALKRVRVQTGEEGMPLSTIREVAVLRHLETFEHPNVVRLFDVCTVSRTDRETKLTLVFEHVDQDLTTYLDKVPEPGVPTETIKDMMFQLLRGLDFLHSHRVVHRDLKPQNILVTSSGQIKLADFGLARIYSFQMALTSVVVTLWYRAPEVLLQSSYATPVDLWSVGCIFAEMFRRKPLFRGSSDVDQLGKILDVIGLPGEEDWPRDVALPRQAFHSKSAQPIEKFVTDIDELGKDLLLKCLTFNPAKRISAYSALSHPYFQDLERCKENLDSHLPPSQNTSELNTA
Cyclin-dependent kinase 4/cyclin D1, sequence (P11802 whole entry): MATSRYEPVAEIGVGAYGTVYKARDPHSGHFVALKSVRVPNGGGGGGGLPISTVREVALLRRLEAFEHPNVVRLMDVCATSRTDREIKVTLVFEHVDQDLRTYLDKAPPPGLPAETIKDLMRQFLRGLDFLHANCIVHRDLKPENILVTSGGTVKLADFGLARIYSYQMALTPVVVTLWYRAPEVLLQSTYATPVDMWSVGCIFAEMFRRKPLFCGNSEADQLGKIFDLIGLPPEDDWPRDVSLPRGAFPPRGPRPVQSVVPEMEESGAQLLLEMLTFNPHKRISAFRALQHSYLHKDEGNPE
Cyclin-dependent kinase 4/cyclin D1, sequence (P24385 whole entry, further chain): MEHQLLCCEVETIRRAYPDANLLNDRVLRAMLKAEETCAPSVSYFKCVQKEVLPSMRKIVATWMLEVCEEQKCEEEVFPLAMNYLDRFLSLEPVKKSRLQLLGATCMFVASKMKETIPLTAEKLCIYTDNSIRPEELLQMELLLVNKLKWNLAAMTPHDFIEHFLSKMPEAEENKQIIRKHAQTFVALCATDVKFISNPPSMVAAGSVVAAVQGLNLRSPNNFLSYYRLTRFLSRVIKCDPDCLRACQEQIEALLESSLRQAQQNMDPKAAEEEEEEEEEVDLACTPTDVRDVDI
CDK6/cyclin D1, sequence (P24385 whole entry): as the sequence (P24385 whole entry, further chain) above
CDK6/cyclin D1, sequence (Q00534 whole entry): as the sequence (Q00534 whole entry) above
Mitogen-activated protein kinase 15, sequence (Q8TD08 whole entry): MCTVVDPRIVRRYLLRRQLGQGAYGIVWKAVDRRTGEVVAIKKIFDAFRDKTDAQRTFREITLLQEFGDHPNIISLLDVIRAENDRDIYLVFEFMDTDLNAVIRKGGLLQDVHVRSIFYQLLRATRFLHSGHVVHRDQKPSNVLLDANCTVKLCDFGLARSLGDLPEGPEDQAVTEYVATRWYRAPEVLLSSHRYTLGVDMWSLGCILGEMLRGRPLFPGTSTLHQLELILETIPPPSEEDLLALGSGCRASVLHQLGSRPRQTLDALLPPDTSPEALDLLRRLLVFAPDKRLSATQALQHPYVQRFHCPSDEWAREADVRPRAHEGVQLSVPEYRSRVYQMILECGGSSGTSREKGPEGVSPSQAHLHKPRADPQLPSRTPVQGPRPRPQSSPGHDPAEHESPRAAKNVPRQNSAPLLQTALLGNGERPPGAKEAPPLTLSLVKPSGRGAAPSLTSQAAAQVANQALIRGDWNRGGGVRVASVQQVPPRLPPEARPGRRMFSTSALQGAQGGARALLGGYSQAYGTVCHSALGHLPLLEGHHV

SMILES: Cc1[nH]nc(C(=O)Nc2ccc(CN3CCN(C)CC3)cc2)c1Nc1ncnc2sccc12
activity at 0.123 µM [1]: 99.7%
Activity [2]: 98.5%
Activity [3]: 96.2%

SMILES: Cc1nc(Nc2c[nH]nc2C(=O)Nc2ccc(CN3CCN(C)CC3)cc2)c2cc(C(C)C)sc2n1
IC50 [6]: 19.2 nM
inhibition [7]: > 80%
IC50 [8]: 21.5 nM
IC50 [4]: 65 nM
IC50 [5]: 0.73 nM
inhibition at 0.123 µM [9]: > 80%

SMILES: CN1CCN(Cc2ccc(NC(=O)c3n[nH]cc3Nc3nc(C4CC4)nc4sccc34)cc2)CC1
activity at 0.123 µM [1]: 89.8%
Activity [3]: 103%
IC50 [4]: 61 nM
IC50 [5]: 15.7 nM

SMILES: CN1CCN(Cc2ccc(NC(=O)c3n[nH]cc3Nc3ncnc4sccc34)cc2)CC1
Kd [12]: 0.23 nM
IC50 [6]: 3.33 nM
microsomal CLint [13]: 13.6 µL/min/mg
Drug uptake [14]: 29.7%
IC50 [15]: 13.2 nM
IC50 [16]: 7.35 nM
half-life [17]: 51 min
IC50 [18]: 0.54 nM
IC50 [19]: < 10 nM
Kd [20]: 1.3 nM
IC50 [21]: 2.67 nM
IC50 [22]: < 10 nM
inhibition [7]: > 80%
IC50 [23]: 1.85 nM
IC50 [24]: < 10 nM
IC50 [25]: 17.5 nM
IC50 [26]: 235 nM
IC50 [27]: < 10 nM
IC50 [4]: 16 nM
IC50 [5]: 0.6 nM
IC50 [28]: 39 nM
inhibition at 0.123 µM [9]: > 80%
IC50 [29]: 334 nM
IC50 [30]: 1.23 nM
Kd [31]: 7.01 nM
IC50 [32]: 4.5 nM

SMILES: Cc1nc(Nc2c[nH]nc2C(=O)Nc2ccc(CN3CCN(C)CC3)cc2)c2ccsc2n1
activity at 0.123 µM [1]: 51.1%
Ratio IC50 [10]: 100
Activity [3]: 72.1%
IC50 [4]: 52 nM
IC50 [5]: 0.65 nM
Ratio IC50 [11]: 100

SMILES: CN1CCN(Cc2ccc(NC(=O)c3nn(C)cc3Nc3ncnc4[nH]ccc34)cc2)CC1
activity at 0.123 µM [1]: 98.5%
Activity [2]: 87.6%
Activity [3]: 99.3%

SMILES: Cc1[nH]nc(C(=O)Nc2ccc(CN3CCN(C)CC3)cc2)c1Nc1ncnc2[nH]ccc12
activity at 0.123 µM [1]: 99.9%
Activity [2]: 98.5%
Activity [3]: 95.7%

SMILES: O=C(Nc1ccc(CN2CCOCC2)cc1)c1n[nH]cc1Nc1nc(C2CC2)nc2sccc12
activity at 0.123 µM [1]: 81.4%
Activity [3]: 95.4%
IC50 [4]: 78 nM
IC50 [5]: 16.5 nM

SMILES: Cc1nc(Nc2c[nH]nc2C(=O)Nc2ccc(CN3CCOCC3)cc2)c2cc(C(C)C)sc2n1
IC50 [6]: 33.2 nM
inhibition [7]: > 80%
IC50 [8]: 25.4 nM
IC50 [4]: 48 nM
IC50 [5]: 0.66 nM
inhibition at 0.123 µM [9]: > 80%

The next lines start with the values.

activity at 0.123 µM [1]: 86.6%
Activity [3]: 87%
IC50 [4]: 65 nM
IC50 [5]: 3.42 nM
SMILES: CCc1nc(Nc2c[nH]nc2C(=O)Nc2ccc(N3CCNCC3)cc2)c2ccsc2n1

activity at 0.123 µM [1]: 79.4%
Activity [3]: 87.2%
IC50 [4]: 18 nM
IC50 [5]: 0.66 nM
SMILES: Cc1nc2c(c(Nc3c[nH]nc3C(=O)Nc3ccc(N4CCNCC4)cc3)n1)CCCC2

activity at 0.123 µM [1]: 100%
Activity [3]: 99.2%
IC50 [4]: 98 nM
IC50 [5]: 20.5 nM
SMILES: CC(C)(C)c1nc(Nc2c[nH]nc2C(=O)Nc2ccc(N3CCNCC3)cc2)c2ccsc2n1

activity at 0.123 µM [1]: 56.8%
Activity [3]: 63.6%
IC50 [4]: 26 nM
IC50 [5]: 0.47 nM
SMILES: O=C(Nc1ccc(N2CCNCC2)cc1)c1n[nH]cc1Nc1nc(Cl)nc2sccc12

IC50 [6]: 84.3 nM
Ratio IC50 [10]: 131
inhibition [7]: > 80%
IC50 [8]: 81.5 nM
IC50 [4]: 19 nM
IC50 [5]: 0.62 nM
inhibition at 0.123 µM [9]: > 80%
Ratio IC50 [11]: 131
SMILES: Cc1nc(Nc2c[nH]nc2C(=O)Nc2ccc(N3CCNCC3)cc2)c2ccsc2n1

activity at 0.123 µM [1]: 52%
Activity [3]: 79.7%
IC50 [4]: 62 nM
IC50 [5]: 3.63 nM
SMILES: Cc1nc(Nc2c[nH]nc2C(=O)Nc2ccc(CN3CCOCC3)cc2)c2ccsc2n1

activity at 0.123 µM [1]: 97.4%
Activity [3]: 88%
IC50 [4]: 59 nM
IC50 [5]: 2.53 nM
SMILES: O=C(Nc1ccc(N2CCNCC2)cc1)c1n[nH]cc1Nc1nc(C2CC2)nc2sccc12

activity at 0.123 µM [1]: 78.8%
Activity [3]: 83.1%
IC50 [4]: 33 nM
IC50 [5]: 3.8 nM
SMILES: Cc1nc(Nc2c[nH]nc2C(=O)Nc2ccc(N3CCOCC3)cc2)c2ccsc2n1

activity at 0.123 µM [1]: 101%
Activity [3]: 93.5%
IC50 [4]: 57 nM
IC50 [5]: 11.3 nM
SMILES: CC(C)c1nc(Nc2c[nH]nc2C(=O)Nc2ccc(N3CCNCC3)cc2)c2ccsc2n1

activity at 0.123 µM [1]: 71.2%
Activity [3]: 72.7%
IC50 [4]: 27 nM
IC50 [5]: 0.95 nM
SMILES: Cc1nc(Nc2c[nH]nc2C(=O)Nc2ccc(N3CCN(C)CC3)cc2)c2ccsc2n1
